Results taken from publication PMC7675540 (ACS Omega, 2020).

Biological target: T1, carboxylesterase 1 (CES1) (Homo sapiens, UniProt P23141)
T1 sequence (P23141 18-567): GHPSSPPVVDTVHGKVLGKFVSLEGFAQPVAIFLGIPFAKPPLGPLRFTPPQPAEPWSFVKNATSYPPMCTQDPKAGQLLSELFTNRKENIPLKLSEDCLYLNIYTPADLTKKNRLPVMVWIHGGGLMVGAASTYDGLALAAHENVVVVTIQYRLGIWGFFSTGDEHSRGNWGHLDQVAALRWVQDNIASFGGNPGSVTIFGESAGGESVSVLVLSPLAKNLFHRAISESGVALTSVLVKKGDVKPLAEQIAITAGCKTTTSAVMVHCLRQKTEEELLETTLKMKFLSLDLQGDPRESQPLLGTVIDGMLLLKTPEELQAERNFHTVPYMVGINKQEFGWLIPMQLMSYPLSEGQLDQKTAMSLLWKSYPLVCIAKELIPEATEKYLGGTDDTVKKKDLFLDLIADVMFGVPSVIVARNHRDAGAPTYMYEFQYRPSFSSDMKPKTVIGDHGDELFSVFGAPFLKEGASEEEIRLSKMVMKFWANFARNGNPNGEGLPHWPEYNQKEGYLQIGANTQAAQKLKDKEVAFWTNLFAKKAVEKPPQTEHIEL
Assay: LC-MS/MS of the product of PGD2-G hydrolysis
Type: biochemical

CCCCC[C@H](O)/C=C/[C@H]1C(=O)C[C@H](O)[C@@H]1C/C=C\CCCC(=O)O [PGD2]
LC-MS/MS of the product of PGD2-G hydrolysis: Our data indicates that PGD2-G/PGD2 is a substrate/product dyad for CES1.
